Reference: PubChem BioAssay (NCI)
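GI50 = concentration required for 50% inhibition of growth. TGI: total growth inhibition.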

Experiments:
Experiment in all cases: inhibition of tumour cell growth, NCI panel, 384-well format
SNB-19 CNS = test system: SNB-19 CNS
786-0 renal = test system: 786-0 renal
CAKI-1 renal = test system: CAKI-1 renal
HCT-15 colon = test system: HCT-15 colon
SF-539 CNS = test system: SF-539 CNS
MDA-MB-468 breast = test system: MDA-MB-468 breast
HCT-116 colon = test system: HCT-116 colon
EKVX NSCLC = test system: EKVX NSCLC
NCI-H23 lung = test system: NCI-H23 lung
SK-OV-3 ovarian = test system: SK-OV-3 ovarian
KM12 colon = test system: KM12 colon
TK-10 renal = test system: TK-10 renal
SF-295 CNS = test system: SF-295 CNS
HT29 colon = test system: HT29 colon
NCI-H226 lung = test system: NCI-H226 lung
MOLT-4 leukemia = test system: MOLT-4 leukemia
OVCAR-4 ovarian = test system: OVCAR-4 ovarian
MDA-MB-231 breast = test system: MDA-MB-231 breast
NCI-H322M lung = test system: NCI-H322M lung
SNB-75 CNS = test system: SNB-75 CNS
IGROV1 ovarian = test system: IGROV1 ovarian
SR leukemia = test system: SR leukemia
SK-MEL-5 melanoma = test system: SK-MEL-5 melanoma
A498 renal = test system: A498 renal
OVCAR-5 ovarian = test system: OVCAR-5 ovarian
UACC-257 melanoma = test system: UACC-257 melanoma
NCI/ADR-RES ovarian = test system: NCI/ADR-RES ovarian
DU-145 prostate = test system: DU-145 prostate
SW-620 colon = test system: SW-620 colon
LOX IMVI melanoma = test system: LOX IMVI melanoma
HOP-92 NSCLC = test system: HOP-92 NSCLC
OVCAR-8 ovarian = test system: OVCAR-8 ovarian
RPMI-8226 leukemia = test system: RPMI-8226 leukemia
UACC-62 melanoma = test system: UACC-62 melanoma
A549 NSCLC = test system: A549 NSCLC
OVCAR-3 ovarian = test system: OVCAR-3 ovarian
PC-3 prostate = test system: PC-3 prostate
MDA-MB-435 melanoma = test system: MDA-MB-435 melanoma
ACHN renal = test system: ACHN renal
RXF 393 renal = test system: RXF 393 renal
HCC-2998 colon = test system: HCC-2998 colon
CCRF-CEM leukemia = test system: CCRF-CEM leukemia
SF-268 CNS = test system: SF-268 CNS
MCF7 breast = test system: MCF7 breast
SK-MEL-28 melanoma = test system: SK-MEL-28 melanoma
UO-31 renal = test system: UO-31 renal
HL-60(TB) leukemia = test system: HL-60(TB) leukemia
U251 glioblastoma = test system: U251 glioblastoma
SN12C renal = test system: SN12C renal
BT-549 breast = test system: BT-549 breast
MALME-3M melanoma = test system: MALME-3M melanoma
NCI-H522 lung = test system: NCI-H522 lung
NCI-H460 NSCLC = test system: NCI-H460 NSCLC
HOP-62 NSCLC = test system: HOP-62 NSCLC
COLO 205 colon = test system: COLO 205 colon
HS 578T breast = test system: HS 578T breast
T-47D breast = test system: T-47D breast
M14 melanoma = test system: M14 melanoma

Cc1cnc(Nc2ccc(OCCN3CCCC3)cc2)nc1Nc1cccc(S(=O)(=O)NC(C)(C)C)c1
GI50 (SNB-19 CNS): 2.97 µM | TGI (SNB-19 CNS): 8.89 µM | GI50 (786-0 renal): 1.27 µM | TGI (786-0 renal): 2.55 µM | GI50 (CAKI-1 renal): 0.593 µM | TGI (CAKI-1 renal): 1.71 µM | GI50 (HCT-15 colon): 1.66 µM | TGI (HCT-15 colon): 4.31 µM | GI50 (SF-539 CNS): 1.51 µM | TGI (SF-539 CNS): 2.86 µM | GI50 (MDA-MB-468 breast): 1.2 µM | TGI (MDA-MB-468 breast): 2.64 µM | GI50 (HCT-116 colon): 0.635 µM | TGI (HCT-116 colon): 2.07 µM | GI50 (EKVX NSCLC): 1.77 µM | TGI (EKVX NSCLC): 3.98 µM | GI50 (NCI-H23 lung): 1.45 µM | TGI (NCI-H23 lung): 3.35 µM | GI50 (SK-OV-3 ovarian): 0.604 µM | TGI (SK-OV-3 ovarian): 1.84 µM | GI50 (KM12 colon): 0.418 µM | TGI (KM12 colon): 5.55 µM | GI50 (TK-10 renal): 1.55 µM | TGI (TK-10 renal): 3.19 µM | GI50 (SF-295 CNS): 2.74 µM | TGI (SF-295 CNS): 8.67 µM | GI50 (HT29 colon): 1.42 µM | TGI (HT29 colon): 2.79 µM | GI50 (NCI-H226 lung): 0.74 µM | TGI (NCI-H226 lung): 1.94 µM | GI50 (MOLT-4 leukemia): 0.428 µM | TGI (MOLT-4 leukemia): 1.48 µM | GI50 (OVCAR-4 ovarian): 1.6 µM | TGI (OVCAR-4 ovarian): 3.65 µM | GI50 (MDA-MB-231 breast): 1.06 µM | TGI (MDA-MB-231 breast): 2.35 µM | GI50 (NCI-H322M lung): 1.24 µM | TGI (NCI-H322M lung): 7.23 µM | GI50 (SNB-75 CNS): 0.869 µM | TGI (SNB-75 CNS): 2.16 µM | GI50 (IGROV1 ovarian): 1.08 µM | TGI (IGROV1 ovarian): 2.65 µM | GI50 (SR leukemia): 0.372 µM | TGI (SR leukemia): 1.36 µM | GI50 (SK-MEL-5 melanoma): 1.32 µM | TGI (SK-MEL-5 melanoma): 2.63 µM | GI50 (A498 renal): 0.909 µM | TGI (A498 renal): 3.09 µM | GI50 (OVCAR-5 ovarian): 1.67 µM | TGI (OVCAR-5 ovarian): 5.63 µM | GI50 (UACC-257 melanoma): 1.73 µM | TGI (UACC-257 melanoma): 3.12 µM | GI50 (NCI/ADR-RES ovarian): 6.43 µM | TGI (NCI/ADR-RES ovarian): 18.3 µM | GI50 (DU-145 prostate): 1.08 µM | TGI (DU-145 prostate): 2.87 µM | GI50 (SW-620 colon): 1.57 µM | TGI (SW-620 colon): 3.64 µM | GI50 (LOX IMVI melanoma): 0.815 µM | TGI (LOX IMVI melanoma): 2.05 µM | GI50 (HOP-92 NSCLC): 1.02 µM | TGI (HOP-92 NSCLC): 2.22 µM | GI50 (OVCAR-8 ovarian): 1.54 µM | TGI (OVCAR-8 ovarian): 2.92 µM | GI50 (RPMI-8226 leukemia): 0.624 µM | TGI (RPMI-8226 leukemia): 1.78 µM | GI50 (UACC-62 melanoma): 1 µM | TGI (UACC-62 melanoma): 2.67 µM | GI50 (A549 NSCLC): 1.37 µM | TGI (A549 NSCLC): 2.73 µM | GI50 (OVCAR-3 ovarian): 1.27 µM | TGI (OVCAR-3 ovarian): 4.51 µM | GI50 (PC-3 prostate): 1.44 µM | TGI (PC-3 prostate): 8.68 µM | GI50 (MDA-MB-435 melanoma): 2.61 µM | TGI (MDA-MB-435 melanoma): 11.6 µM | GI50 (ACHN renal): 1.3 µM | TGI (ACHN renal): 2.85 µM | GI50 (RXF 393 renal): 0.707 µM | TGI (RXF 393 renal): 1.66 µM | GI50 (HCC-2998 colon): 1.39 µM | TGI (HCC-2998 colon): 2.86 µM | GI50 (CCRF-CEM leukemia): 1.4 µM | TGI (CCRF-CEM leukemia): 2.75 µM | GI50 (SF-268 CNS): 1.9 µM | TGI (SF-268 CNS): 4.22 µM | GI50 (MCF7 breast): 1.16 µM | TGI (MCF7 breast): 2.68 µM | GI50 (SK-MEL-28 melanoma): 3.61 µM | TGI (SK-MEL-28 melanoma): 11.6 µM | GI50 (UO-31 renal): 1.77 µM | TGI (UO-31 renal): 3.17 µM | GI50 (HL-60(TB) leukemia): 0.464 µM | TGI (HL-60(TB) leukemia): 1.34 µM | GI50 (U251 glioblastoma): 2.57 µM | TGI (U251 glioblastoma): 12.4 µM | GI50 (SN12C renal): 1.54 µM | TGI (SN12C renal): 4.49 µM | GI50 (BT-549 breast): 1.62 µM | TGI (BT-549 breast): 3.01 µM | GI50 (MALME-3M melanoma): 1.45 µM | TGI (MALME-3M melanoma): 3.04 µM | GI50 (NCI-H522 lung): 0.523 µM | TGI (NCI-H522 lung): 1.68 µM | GI50 (NCI-H460 NSCLC): 1.88 µM | TGI (NCI-H460 NSCLC): 11.7 µM | GI50 (HOP-62 NSCLC): 2 µM | TGI (HOP-62 NSCLC): 4.87 µM | GI50 (COLO 205 colon): 1.82 µM | TGI (COLO 205 colon): 3.28 µM | GI50 (HS 578T breast): 0.837 µM | TGI (HS 578T breast): 2.27 µM | GI50 (T-47D breast): 1.78 µM | TGI (T-47D breast): 5.21 µM | GI50 (M14 melanoma): 1.02 µM | TGI (M14 melanoma): 2.5 µM
